Here are results for 22 compounds from patent US12662465B2, “EGFR inhibitors” (Blueprint Medicines Corporation, priority 2021, dated 2026).

Read-outs that look alike come from different tables or passages of the source.

The target in test [1] is T1, EGFR L858R (Homo sapiens, UniProt P00533, L858R).
T1 construct: purchased SignalChem E10-122BG
Put plainly: Biochemical EGFR inhibition assay (Caliper mobility shift), EGFR L858R. The settings on record: read-out: Enz EGFR_L858R IC50.

Test [2] addresses intracellular phosphorylation of EGFR (Tyr1068) in PC-9 cells (Ex19Del) (Homo sapiens, UniProt P00533, DEL746-750). In words: PC-9 pEGFR AlphaLISA assay. The test is classed as cell-based. Conditions: 4 hours compound incubation, read-out: Ext pEGFR_PC-9 Ex19Del IC50. On the technique in general: Bead proximity is the source of the signal in Alpha formats.
In test [3] the target is T2, EGFR (d746-750) (Homo sapiens, UniProt P00533, DEL746-750).
T2 construct: purchased SignalChem E10-122JG
Put plainly: Biochemical EGFR inhibition assay (Caliper mobility shift), EGFR (d746-750). Conditions: read-out: Enz EGFR_Exon19-del746-750 IC50.

[4] abbreviates: 1.0 mM ATP or ATP Km, room temperature (25° C.).

Sequence of intracellular phosphorylation of EGFR (Tyr1068) in PC-9 cells (Ex19Del) (P00533 with tags, fused parts or gaps DEL746-750): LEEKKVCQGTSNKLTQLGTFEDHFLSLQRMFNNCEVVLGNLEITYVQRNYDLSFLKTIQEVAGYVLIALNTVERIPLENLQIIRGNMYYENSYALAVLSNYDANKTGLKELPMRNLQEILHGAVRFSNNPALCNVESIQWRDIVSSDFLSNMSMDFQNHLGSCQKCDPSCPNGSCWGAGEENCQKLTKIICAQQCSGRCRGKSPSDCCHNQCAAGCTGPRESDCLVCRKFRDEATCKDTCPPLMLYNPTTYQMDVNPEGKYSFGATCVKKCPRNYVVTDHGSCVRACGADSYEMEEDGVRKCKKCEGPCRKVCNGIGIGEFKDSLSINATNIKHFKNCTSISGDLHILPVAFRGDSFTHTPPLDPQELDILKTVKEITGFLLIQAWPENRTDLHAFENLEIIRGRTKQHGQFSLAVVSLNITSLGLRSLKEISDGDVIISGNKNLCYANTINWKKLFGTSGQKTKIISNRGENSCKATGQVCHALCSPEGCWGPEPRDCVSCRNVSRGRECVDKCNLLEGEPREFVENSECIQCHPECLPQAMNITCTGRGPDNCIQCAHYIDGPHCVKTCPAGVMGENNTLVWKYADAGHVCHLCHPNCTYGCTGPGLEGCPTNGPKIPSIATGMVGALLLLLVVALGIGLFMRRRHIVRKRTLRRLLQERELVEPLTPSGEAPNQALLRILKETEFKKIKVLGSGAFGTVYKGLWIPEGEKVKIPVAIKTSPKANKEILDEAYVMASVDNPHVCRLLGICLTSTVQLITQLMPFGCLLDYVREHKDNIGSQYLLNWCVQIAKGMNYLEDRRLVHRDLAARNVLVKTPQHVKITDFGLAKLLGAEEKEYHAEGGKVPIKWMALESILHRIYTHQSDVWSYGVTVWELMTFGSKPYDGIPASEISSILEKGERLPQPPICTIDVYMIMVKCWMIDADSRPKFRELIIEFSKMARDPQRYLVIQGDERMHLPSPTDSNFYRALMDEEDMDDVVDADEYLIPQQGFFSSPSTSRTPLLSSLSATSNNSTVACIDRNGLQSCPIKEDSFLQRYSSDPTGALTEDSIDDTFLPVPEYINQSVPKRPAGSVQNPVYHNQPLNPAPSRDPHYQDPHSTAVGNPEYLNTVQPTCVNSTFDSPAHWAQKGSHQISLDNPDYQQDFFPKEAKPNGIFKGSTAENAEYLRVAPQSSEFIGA
T2 sequence (P00533 with tags, fused parts or gaps DEL746-750 limits assumed): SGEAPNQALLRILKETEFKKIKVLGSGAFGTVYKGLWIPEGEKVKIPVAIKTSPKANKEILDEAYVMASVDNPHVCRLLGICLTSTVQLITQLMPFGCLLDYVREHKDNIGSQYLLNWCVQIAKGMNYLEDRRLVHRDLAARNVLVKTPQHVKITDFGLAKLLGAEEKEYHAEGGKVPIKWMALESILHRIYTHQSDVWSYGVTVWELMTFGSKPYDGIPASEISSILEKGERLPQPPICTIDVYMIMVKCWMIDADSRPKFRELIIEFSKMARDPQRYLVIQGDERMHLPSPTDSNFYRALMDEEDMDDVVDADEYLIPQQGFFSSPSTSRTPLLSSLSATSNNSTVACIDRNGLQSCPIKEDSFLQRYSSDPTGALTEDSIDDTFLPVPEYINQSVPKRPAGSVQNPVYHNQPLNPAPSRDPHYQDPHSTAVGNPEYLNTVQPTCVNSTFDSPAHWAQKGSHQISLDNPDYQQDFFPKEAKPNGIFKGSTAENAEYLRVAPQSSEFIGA
T1 sequence (P00533 25-1210 L858R): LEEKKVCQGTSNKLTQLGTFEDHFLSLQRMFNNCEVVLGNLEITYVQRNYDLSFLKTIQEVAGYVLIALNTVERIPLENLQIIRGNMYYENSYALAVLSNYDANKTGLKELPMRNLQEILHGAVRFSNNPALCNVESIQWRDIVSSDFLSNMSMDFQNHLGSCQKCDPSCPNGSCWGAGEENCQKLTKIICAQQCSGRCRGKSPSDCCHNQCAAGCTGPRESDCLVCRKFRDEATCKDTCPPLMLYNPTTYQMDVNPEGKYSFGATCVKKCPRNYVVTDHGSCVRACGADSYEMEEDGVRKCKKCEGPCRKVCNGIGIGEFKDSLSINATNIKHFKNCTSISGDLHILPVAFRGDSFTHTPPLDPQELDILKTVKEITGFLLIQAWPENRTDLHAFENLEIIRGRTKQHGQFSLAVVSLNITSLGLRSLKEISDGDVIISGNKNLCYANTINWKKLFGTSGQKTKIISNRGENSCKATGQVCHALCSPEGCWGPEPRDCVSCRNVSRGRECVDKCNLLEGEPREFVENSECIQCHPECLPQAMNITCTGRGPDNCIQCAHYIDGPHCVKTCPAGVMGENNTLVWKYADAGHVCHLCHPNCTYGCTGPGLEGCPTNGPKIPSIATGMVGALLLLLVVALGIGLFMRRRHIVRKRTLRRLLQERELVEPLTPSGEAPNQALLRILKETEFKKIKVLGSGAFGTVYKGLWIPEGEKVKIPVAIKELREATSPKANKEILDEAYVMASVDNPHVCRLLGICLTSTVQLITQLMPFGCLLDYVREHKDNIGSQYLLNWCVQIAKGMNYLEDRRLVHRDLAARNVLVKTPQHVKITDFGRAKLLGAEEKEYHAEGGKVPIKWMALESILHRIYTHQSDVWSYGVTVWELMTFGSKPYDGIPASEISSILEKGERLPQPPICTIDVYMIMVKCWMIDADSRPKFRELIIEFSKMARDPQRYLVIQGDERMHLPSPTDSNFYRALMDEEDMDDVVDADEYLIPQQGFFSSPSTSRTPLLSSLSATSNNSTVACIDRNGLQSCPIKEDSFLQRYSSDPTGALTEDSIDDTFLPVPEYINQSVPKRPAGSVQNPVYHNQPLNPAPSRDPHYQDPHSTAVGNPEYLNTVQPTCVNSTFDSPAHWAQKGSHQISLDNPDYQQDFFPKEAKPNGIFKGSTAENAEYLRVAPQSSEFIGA

What is called IC50 is the concentration that gives 50% inhibition. For the compound `[2H]c1c(-c2cnn(C)c2)cc(O[C@H](C)CN(C)C)c2c(Nc3ccc4ncccc4c3F)ncnc12` [Example 158, (R)-5-((1-(dimethylamino)propan-2-yl)oxy)-N-(5-fluoroquinolin-6-yl)-7-(1-methyl-1H-pyrazol-4-yl)quinazolin-8-d-4-amine], the IC50 in test [1] was below 0.01 µM; in test [2] it was at most 0.01 µM; in test [3], below 0.01 µM.

Take `CCn1cc(-c2cc(OC3CCN(C)CC3)c3c(Nc4ccc5ncccc5c4F)ncnc3c2)c(OC)n1` [Example 117, 7-(1-ethyl-3-methoxy-1H-pyrazol-4-yl)-N-(5-fluoroquinolin-6-yl)-5-((1-methylpiperidin-4-yl)oxy)quinazolin-4-amine]: the 50% inhibitory concentration (IC50) in test [1] was 0.0101 to 0.05 µM; in test [2], 0.0101 to 0.05 µM; in test [3], below 0.01 µM.

With `C[C@@H](Oc1cc(-c2cnn(CCO)c2)cc2ncnc(Nc3ccc4ncccc4c3F)c12)C1COC1` [Example 51, (R)-2-(4-(4-((5-fluoroquinolin-6-yl)amino)-5-(1-(oxetan-3-yl)ethoxy)quinazolin-7-yl)-1H-pyrazol-1-yl)ethan-1-ol], the values for the 50% inhibitory concentration (IC50) in test [1], in test [2] and in test [3] were below 0.01 µM, at most 0.01 µM and below 0.01 µM, respectively.

For the compound `C[C@@H](Oc1cc(-c2cnn(C)c2)cc2ncnc(Nc3ccc4ncccc4c3F)c12)C1COC1` (single isomer, unassigned) [Example 1, (R)—N-(5-fluoroquinolin-6-yl)-7-(1-methyl-1H-pyrazol-4-yl)-5-(1-(oxetan-3-yl)ethoxy)quinazolin-4-amine or (S)—N-(5-fluoroquinolin-6-yl)-7-(1-methyl-1H-pyrazol-4-yl)-5-(1-(oxetan-3-yl)ethoxy)quinazolin-4-amine], the IC50 in test [1] (setting [4]) was below 0.01 µM; in test [2], at most 0.01 µM; in test [3] (setting [4]) it was below 0.01 µM.

Regarding `C[C@H](Oc1cc(-c2cnn(C)c2)cc2ncnc(Nc3ccc4ncccc4c3F)c12)C(=O)N1CCOCC1` (single isomer, unassigned) [Example 139, (S)-2-((4-((5-fluoroquinolin-6-yl)amino)-7-(1-methyl-1H-pyrazol-4-yl)quinazolin-5-yl)oxy)-1-morpholinopropan-1-one or (R)-2-((4-((5-fluoroquinolin-6-yl)amino)-7-(1-methyl-1H-pyrazol-4-yl)quinazolin-5-yl)oxy)-1-morpholinopropan-1-one], the IC50 in test [1] (setting [4]) was below 0.01 µM; in test [2], at most 0.01 µM; in test [3] (setting [4]) it was below 0.01 µM.

For the compound `COc1cc(O[C@H](C)CN(C)C)c2c(Nc3ccc4ncccc4c3F)ncnc2c1` [Example 57, (R)-5-((1-(dimethylamino)propan-2-yl)oxy)-N-(5-fluoroquinolin-6-yl)-7-methoxyquinazolin-4-amine], the half-inhibitory concentration (IC50) was 0.0101 to 0.05 µM in test [1], 0.0101 to 0.05 µM in test [2] and below 0.01 µM in test [3].

In the case of `CN(C)CC1(COc2cc(-c3cnn(C)c3)cc3ncnc(Nc4ccc5ncccc5c4F)c23)COC1` [Example 12, 5-((3-((dimethylamino)methyl)oxetan-3-yl)methoxy)-N-(5-fluoroquinolin-6-yl)-7-(1-methyl-1H-pyrazol-4-yl) quinazolin-4-amine], the IC50 was 0.0101 to 0.05 µM in test [1], above 0.0501 µM in test [2] and below 0.01 µM in test [3].

On to `C[C@H](CN(C)C)Oc1cc(N2CCOC[C@@H]2CO)cc2ncnc(Nc3ccc4ncccc4c3F)c12` [Example 92, ((S)-4-(5-(((R)-1-(dimethylamino)propan-2-yl)oxy)-4-((5-fluoroquinolin-6-yl)amino)quinazolin-7-yl)morpholin-3-yl)methanol], for which the IC50 in test [1] was 0.0101 to 0.05 µM; in test [2], 0.0101 to 0.05 µM; in test [3], below 0.01 µM.

Regarding `C[C@H](CN(C)C)Oc1cc(N2CC3(COC3)C2)cc2ncnc(Nc3c(F)cc4ncccc4c3F)c12` [Example 39, (R)—N-(5,7-difluoroquinolin-6-yl)-5-((1-(dimethylamino)propan-2-yl)oxy)-7-(2-oxa-6-azaspiro[3.3]heptan-6-yl)quinazolin-4-amine], the results for the IC50 in test [1], in test [2] and in test [3] were below 0.01 µM, at most 0.01 µM and below 0.01 µM, respectively.

For the compound `COCC(CO)[C@@H](C)Oc1cc(-c2cnn(C)c2)cc2ncnc(Nc3ccc4ncccc4c3F)c12` (stereo partly drawn) [Example 112, (3R)-3-((4-((5-fluoroquinolin-6-yl)amino)-7-(1-methyl-1H-pyrazol-4-yl)quinazolin-5-yl)oxy)-2-(methoxymethyl)butan-1-ol], the IC50 in test [1] was below 0.01 µM; in test [2], at most 0.01 µM; in test [3] it was below 0.01 µM.

With `C[C@H](CN(C)C)Oc1cc(-c2cnn(C)c2)cc2nc[n+]([O-])c(Nc3ccc4ncccc4c3F)c12` (single isomer, unassigned) [Example 128], the IC50 is 0.0101 to 0.05 µM in test [1], above 0.0501 µM in test [2] and 0.0101 to 0.05 µM in test [3].

Regarding `C[C@@H](Oc1cc(-c2cnn(C)c2)cc2ncnc(Nc3ccc4ncccc4c3F)c12)[C@@H]1COCCN1` (single isomer, unassigned) [Example 124], the IC50 is below 0.01 µM in test [1] (setting [4]), 0.0101 to 0.05 µM in test [2] and below 0.01 µM in test [3] (setting [4]).

`C[C@H](CN(C)C)Oc1cc(-c2cnn(C)c2)cc2ncnc(Nc3cc(O)c4ncccc4c3F)c12` [Example 122, (R)-6-((5-((1-(dimethylamino)propan-2-yl)oxy)-7-(1-methyl-1H-pyrazol-4-yl)quinazolin-4-yl)amino)-5-fluoroquinolin-8-ol]: the IC50 in test [1] is below 0.01 µM; in test [2], at most 0.01 µM; in test [3] it was below 0.01 µM.

Turning to `C[C@@H](Oc1cc(-c2cnn(C)c2)cc2ncnc(Nc3ccc4ncccc4c3F)c12)C(CO)CO` [Example 111, (R)-2-(1-((4-((5-fluoroquinolin-6-yl)amino)-7-(1-methyl-1H-pyrazol-4-yl)quinazolin-5-yl)oxy)ethyl)propane-1,3-diol], the IC50 in test [1] was below 0.01 µM; in test [2], at most 0.01 µM; in test [3], below 0.01 µM.

`C[C@H](CN(C)C)Oc1cc(N2CCC3(COC3)C2)cc2ncnc(Nc3ccc4ncccc4c3F)c12` [Example 74, (R)-5-((1-(dimethylamino)propan-2-yl)oxy)-N-(5-fluoroquinolin-6-yl)-7-(2-oxa-6-azaspiro[3.4]octan-6-yl)quinazolin-4-amine]: the concentration for half-maximal inhibition (IC50) in test [1] is 0.0101 to 0.05 µM; in test [2], 0.0101 to 0.05 µM; in test [3], below 0.01 µM.

Turning to `C[C@@H](Oc1cc(N2CCOC(C)(C)C2)cc2ncnc(Nc3ccc4ncccc4c3F)c12)C1COC1` [Example 60, (R)-7-(2,2-dimethylmorpholino)-N-(5-fluoroquinolin-6-yl)-5-(1-(oxetan-3-yl)ethoxy)quinazolin-4-amine], the IC50 in test [1] is 0.0101 to 0.05 µM; in test [2] it was 0.0101 to 0.05 µM; in test [3], below 0.01 µM.

Take `CNC[C@@H](C)Oc1cc(-c2cnn(C)c2)cc2ncnc(Nc3ccc4ncccc4c3F)c12` [Example 100, (R)—N-(5-fluoroquinolin-6-yl)-7-(1-methyl-1H-pyrazol-4-yl)-5-((1-(methylamino)propan-2-yl)oxy)quinazolin-4-amine]: the IC50 in test [1], in test [2] and in test [3] was 0.0101 to 0.05 µM each time.

In the case of `CC[C@H](Oc1cc(-c2cnn(C)c2)cc2ncnc(Nc3ccc4ncccc4c3F)c12)C1COC1` (single isomer, unassigned) [Example 23, (S)—N-(5-fluoroquinolin-6-yl)-7-(1-methyl-1H-pyrazol-4-yl)-5-(1-(oxetan-3-yl)propoxy)quinazolin-4-amine or ((R)—N-(5-fluoroquinolin-6-yl)-7-(1-methyl-1H-pyrazol-4-yl)-5-(1-(oxetan-3-yl)propoxy)quinazolin-4-amine], the IC50 is below 0.01 µM in test [1] (setting [4]), at most 0.01 µM in test [2] and below 0.01 µM in test [3] (setting [4]).

`C[C@@H](Oc1cc(-c2cnn(CC(C)(C)O)c2)cc2ncnc(Nc3ccc4ncccc4c3F)c12)C1COC1` [Example 48, (R)-1-(4-(4-(5-fluoroquinolin-6-ylamino)-5-(1-(oxetan-3-yl)ethoxy)quinazolin-7-yl)-1H-pyrazol-1-yl)-2-methylpropan-2-ol]: the IC50 is below 0.01 µM in test [1], at most 0.01 µM in test [2] and below 0.01 µM in test [3].

Turning to `C[C@H](Oc1cc(-c2cnn(C)c2)cc2ncnc(Nc3ccc4ncccc4c3F)c12)[C@@H]1COCCN1` [Example 157, N-(5-fluoroquinolin-6-yl)-7-(1-methyl-1H-pyrazol-4-yl)-5-((S)-1-((S)-morpholin-3-yl)ethoxy)quinazolin-4-amine], the IC50 in test [1], in test [2] and in test [3] was above 0.0501 µM each time.

With `C[C@@H](Oc1cc(-c2cnn(C(C)(C)CO)c2)cc2ncnc(Nc3ccc4ncccc4c3F)c12)C1COC1` [Example 47, (R)-2-(4-(4-(5-fluoroquinolin-6-ylamino)-5-(1-(oxetan-3-yl)ethoxy)quinazolin-7-yl)-1H-pyrazol-1-yl)-2-methylpropan-1-ol], the figures for the half-inhibitory concentration (IC50) in test [1], in test [2] and in test [3] were below 0.01 µM, at most 0.01 µM and below 0.01 µM, respectively.

With `C[C@H](CN(C)C)Oc1cc(N2CC3(COC3)C2)cc2ncnc(Nc3ccc4ncccc4c3F)c12` [Example 71, (R)-5-((1-(dimethylamino)propan-2-yl)oxy)-N-(5-fluoroquinolin-6-yl)-7-(2-oxa-6-azaspiro[3.3]heptan-6-yl)quinazolin-4-amine], the results for the IC50 in test [1], in test [2] and in test [3] were below 0.01 µM, at most 0.01 µM and below 0.01 µM, respectively.
